Results reported in patent publication US12448369B2 (Edgewise Therapeutics, Inc., priority 2023, dated 2025).

What follows are compounds tested on Rabbit Psoas myofibrils (skeletal myosin ATPase) (assay: Myofibril ATPase assay, rabbit psoas (skeletal) myofibrils). Conditions: rabbit psoas myofibrils; Y75 value.
Format: biochemical
Method in brief: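 Values are concentrations giving 75% (Y75) or 125% (Y125) of vehicle ATPase activity, from 4-parameter logistic fits of normalized rates. Rates came from linear regression of A340 over 75 min, NADH oxidation coupled to ADP via PK-LDH. Enzyme source: skeletal myofibrils from rabbit psoas, pH 7.0 pCa buffer.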

Compound | Skeletal EC25 [µM]
Cc1c(CC(=O)N[C@@H](C)c2ccc(F)cc2F)c(=O)[nH]c2ccnc(C(F)(F)F)c12 [compound 377] | 0.01
Cc1c(CC(=O)N[C@H](C)c2ccc(C#N)cn2)c(=O)[nH]c2ccncc12 [compound 466] | 100.00
Cc1c(CC(=O)N[C@@H](CO)c2ccc(C#N)cc2F)c(=O)[nH]c2ccnc(C#N)c12 (single isomer, unassigned) [compound 242] | 0.02
Cc1nccc2[nH]c(=O)c(CC(=O)N[C@@H](CO)c3ncc(C#N)cc3F)c(C)c12 (single isomer, unassigned) [compound 248] | 0.17
Cc1c(CC(=O)N[C@H](CO)c2ncc(F)cc2F)c(=O)[nH]c2ccnc(C(F)(F)F)c12 [compound 263] | 100.00
Cc1nccc2[nH]c(=O)c(CC(=O)N[C@@H](C)c3ncc(F)cc3F)c(C)c12 (single isomer, unassigned) [compound 379] | 0.36
Cc1c(CC(=O)N[C@H](CO)c2ccc(C#N)cc2F)c(=O)[nH]c2cnnc(C#N)c12 [compound 175] | 100.00
Cc1c([C@@H](C)C(=O)N[C@@H](C)c2ccc(F)cc2F)c(=O)[nH]c2ccnc(Cl)c12 (single isomer, unassigned) [compound 365] | 0.03
Cc1c(CC(=O)N[C@@H]2COc3cccnc32)c(=O)[nH]c2ccnc(C#N)c12 (single isomer, unassigned) [compound 212] | 2.21
C[C@H](NC(=O)[C@@H](C)c1cc2c(F)nccc2[nH]c1=O)c1ccc(F)cc1F (single isomer, unassigned) [compound 367] | 0.29
Cc1ccc2[nH]c(=O)c(CC(=O)N[C@@H](C)c3ccc(F)cc3F)c(C)c2n1 [compound 420] | 0.19
COc1nccc2[nH]c(=O)c(CC(=O)N[C@@H](C)c3ccc(F)cc3F)c(C)c12 [compound 385] | 0.03
Cc1c(CC(=O)N[C@@H]2COc3cc(F)cc(F)c32)c(=O)[nH]c2ccnc(C#N)c12 (single isomer, unassigned) [compound 273] | 0.97
Cc1nccc2[nH]c(=O)c(CC(=O)N[C@@H](CO)c3cccnc3)c(C)c12 (single isomer, unassigned) [compound 312] | 100.00
Cc1nccc2[nH]c(=O)c(CC(=O)N[C@@H](CO)Cc3ccccc3)c(C)c12 [compound 496] | 100.00
Cc1ccccc1[C@@H](C)NC(=O)Cc1c(C)c2c(C)nccc2[nH]c1=O (single isomer, unassigned) [compound 326] | 100.00

Same assay, conditions: ‡ Y125 value, not a Y75 value (125% activity relative to no compound); rabbit psoas myofibrils

Compound | Skeletal EC25
Cc1c(C(F)(F)C(=O)NC(C)c2cccc(C#N)n2)c(=O)[nH]c2ccc(F)c(F)c12 (single isomer, unassigned) [Compound 2588] | 19.03‡ μM
C[C@H](NC(=O)C1(c2cc3cc(F)ccc3[nH]c2=O)CC1)c1cccc(C#N)n1 (single isomer, unassigned) [compound 2535] | 51.07‡ μM

What follows are compounds tested on Porcine atria myofibrils (atrial myosin ATPase) (assay: Myofibril ATPase assay, porcine atria myofibrils). Conditions: Y75 value (no ‡ mark); porcine atria myofibrils.
Format: biochemical
Method in brief: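 Y75 (25% inhibition) or Y125 (activation) values come from 4-parameter logistic fits of vehicle-normalized rates. Rates are linear-regression slopes of NADH absorbance at 340 nm, read kinetically over 75 min, with ADP coupled to NADH oxidation via pyruvate kinase/lactate dehydrogenase.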

Compound | Atrial EC25 [µM]
Cc1c(C(F)(F)C(=O)NC(C)c2cccc(C#N)n2)c(=O)[nH]c2ccc(F)c(F)c12 (single isomer, unassigned) [Compound 2588] | 100.00
C[C@H](NC(=O)C1(c2cc3cc(F)ccc3[nH]c2=O)CC1)c1cccc(C#N)n1 (single isomer, unassigned) [compound 2535] | 100.00

Same assay, conditions: porcine atria myofibrils; Y75 value (75% activity relative to no compound)

Compound | Atrial EC25 [µM]
Cc1c(CC(=O)N[C@@H](C)c2ccc(F)cc2F)c(=O)[nH]c2ccnc(C(F)(F)F)c12 [compound 377] | 0.06
Cc1c(CC(=O)N[C@H](C)c2ccc(C#N)cn2)c(=O)[nH]c2ccncc12 [compound 466] | 100.00
Cc1c(CC(=O)N[C@@H](CO)c2ccc(C#N)cc2F)c(=O)[nH]c2ccnc(C#N)c12 (single isomer, unassigned) [compound 242] | 0.09
Cc1nccc2[nH]c(=O)c(CC(=O)N[C@@H](CO)c3ncc(C#N)cc3F)c(C)c12 (single isomer, unassigned) [compound 248] | 0.86
Cc1c(CC(=O)N[C@H](CO)c2ncc(F)cc2F)c(=O)[nH]c2ccnc(C(F)(F)F)c12 [compound 263] | 100.00
Cc1nccc2[nH]c(=O)c(CC(=O)N[C@@H](C)c3ncc(F)cc3F)c(C)c12 (single isomer, unassigned) [compound 379] | 2.36
Cc1c(CC(=O)N[C@H](CO)c2ccc(C#N)cc2F)c(=O)[nH]c2cnnc(C#N)c12 [compound 175] | 100.00
Cc1c([C@@H](C)C(=O)N[C@@H](C)c2ccc(F)cc2F)c(=O)[nH]c2ccnc(Cl)c12 (single isomer, unassigned) [compound 365] | 0.18
Cc1c(CC(=O)N[C@@H]2COc3cccnc32)c(=O)[nH]c2ccnc(C#N)c12 (single isomer, unassigned) [compound 212] | 14.71
C[C@H](NC(=O)[C@@H](C)c1cc2c(F)nccc2[nH]c1=O)c1ccc(F)cc1F (single isomer, unassigned) [compound 367] | 2.23
Cc1ccc2[nH]c(=O)c(CC(=O)N[C@@H](C)c3ccc(F)cc3F)c(C)c2n1 [compound 420] | 0.11
COc1nccc2[nH]c(=O)c(CC(=O)N[C@@H](C)c3ccc(F)cc3F)c(C)c12 [compound 385] | 0.06
Cc1c(CC(=O)N[C@@H]2COc3cc(F)cc(F)c32)c(=O)[nH]c2ccnc(C#N)c12 (single isomer, unassigned) [compound 273] | 2.50
Cc1nccc2[nH]c(=O)c(CC(=O)N[C@@H](CO)c3cccnc3)c(C)c12 (single isomer, unassigned) [compound 312] | 100.00
Cc1nccc2[nH]c(=O)c(CC(=O)N[C@@H](CO)Cc3ccccc3)c(C)c12 [compound 496] | 100.00
Cc1ccccc1[C@@H](C)NC(=O)Cc1c(C)c2c(C)nccc2[nH]c1=O (single isomer, unassigned) [compound 326] | 100.00

What follows are compounds tested against T1, Porcine ventricle myofibrils (ventricular myosin ATPase) (Sus scrofa, UniProt P79293) (assay: Myofibril ATPase assay, porcine ventricle myofibrils). Conditions: porcine ventricle myofibrils; Y75 value.
T1 construct: Myofibrils from porcine cardiac muscle was isolated from the left ventricle of Yucatan minipigs; tissue Exemplar Genetics; host or cells: left ventricle of Yucatan minipigs, myofibrils prepared in house
Format: biochemical, porcine (Yucatan minipigs)
Method in brief: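 ATPase activity of porcine left-ventricular myofibrils is tracked as the slope of NADH loss at 340 nm through a PK/LDH couple. Values are the concentrations that bring activity to 75% (inhibitors) or 125% (activators) of vehicle.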

T1 sequence (P79293 whole entry): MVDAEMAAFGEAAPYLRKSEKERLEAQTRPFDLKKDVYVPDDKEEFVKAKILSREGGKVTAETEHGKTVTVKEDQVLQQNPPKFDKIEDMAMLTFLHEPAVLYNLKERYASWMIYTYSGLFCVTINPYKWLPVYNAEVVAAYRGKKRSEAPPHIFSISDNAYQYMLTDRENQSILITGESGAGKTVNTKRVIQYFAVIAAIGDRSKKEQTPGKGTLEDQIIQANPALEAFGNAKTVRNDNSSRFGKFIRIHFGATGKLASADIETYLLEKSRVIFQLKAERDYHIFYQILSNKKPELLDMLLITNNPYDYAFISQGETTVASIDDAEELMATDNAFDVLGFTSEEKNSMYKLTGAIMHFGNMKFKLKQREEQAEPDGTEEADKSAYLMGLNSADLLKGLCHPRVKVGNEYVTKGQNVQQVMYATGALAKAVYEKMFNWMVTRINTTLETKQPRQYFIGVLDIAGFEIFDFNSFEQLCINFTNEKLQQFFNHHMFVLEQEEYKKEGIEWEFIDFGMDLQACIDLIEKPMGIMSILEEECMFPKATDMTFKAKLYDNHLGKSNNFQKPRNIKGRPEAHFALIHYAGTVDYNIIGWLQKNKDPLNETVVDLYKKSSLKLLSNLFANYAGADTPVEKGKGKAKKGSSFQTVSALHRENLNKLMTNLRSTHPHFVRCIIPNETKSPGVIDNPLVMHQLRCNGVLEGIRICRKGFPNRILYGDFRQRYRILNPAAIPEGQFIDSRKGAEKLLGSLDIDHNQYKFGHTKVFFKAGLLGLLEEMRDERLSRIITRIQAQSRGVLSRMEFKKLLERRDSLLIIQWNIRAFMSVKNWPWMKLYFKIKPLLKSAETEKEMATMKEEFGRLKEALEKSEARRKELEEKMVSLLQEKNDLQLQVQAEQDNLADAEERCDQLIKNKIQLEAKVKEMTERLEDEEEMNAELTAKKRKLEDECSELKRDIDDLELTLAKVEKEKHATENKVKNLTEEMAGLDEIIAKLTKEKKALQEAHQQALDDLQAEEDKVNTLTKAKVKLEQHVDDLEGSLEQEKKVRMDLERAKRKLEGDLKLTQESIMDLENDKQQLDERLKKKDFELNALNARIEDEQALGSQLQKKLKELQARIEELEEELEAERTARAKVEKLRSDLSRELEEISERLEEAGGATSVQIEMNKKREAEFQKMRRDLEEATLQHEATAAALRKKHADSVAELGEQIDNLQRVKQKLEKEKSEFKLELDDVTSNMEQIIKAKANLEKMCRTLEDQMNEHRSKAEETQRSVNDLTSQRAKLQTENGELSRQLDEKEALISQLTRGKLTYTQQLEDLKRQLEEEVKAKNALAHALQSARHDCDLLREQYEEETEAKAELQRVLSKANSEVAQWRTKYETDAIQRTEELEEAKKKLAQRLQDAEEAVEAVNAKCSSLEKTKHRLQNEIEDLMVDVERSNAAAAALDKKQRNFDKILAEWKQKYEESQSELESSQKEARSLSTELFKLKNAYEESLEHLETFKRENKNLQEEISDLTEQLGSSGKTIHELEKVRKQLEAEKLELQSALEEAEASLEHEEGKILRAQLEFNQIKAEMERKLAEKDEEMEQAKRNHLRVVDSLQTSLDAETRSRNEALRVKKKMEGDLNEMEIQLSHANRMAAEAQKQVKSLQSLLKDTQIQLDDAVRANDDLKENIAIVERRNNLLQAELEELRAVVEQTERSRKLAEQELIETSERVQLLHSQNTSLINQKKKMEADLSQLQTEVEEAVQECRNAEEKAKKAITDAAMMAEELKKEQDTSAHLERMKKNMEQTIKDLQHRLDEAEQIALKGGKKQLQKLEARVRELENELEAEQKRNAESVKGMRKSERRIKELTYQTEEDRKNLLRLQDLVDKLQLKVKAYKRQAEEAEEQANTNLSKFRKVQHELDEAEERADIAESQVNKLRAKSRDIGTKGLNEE

Compound | Ventricular EC25 [µM]
Cc1c(CC(=O)N[C@@H](C)c2ccc(F)cc2F)c(=O)[nH]c2ccnc(C(F)(F)F)c12 [compound 377] | 0.29
Cc1c(CC(=O)N[C@H](C)c2ccc(C#N)cn2)c(=O)[nH]c2ccncc12 [compound 466] | 100.00
Cc1c(CC(=O)N[C@@H](CO)c2ccc(C#N)cc2F)c(=O)[nH]c2ccnc(C#N)c12 (single isomer, unassigned) [compound 242] | 0.52
Cc1nccc2[nH]c(=O)c(CC(=O)N[C@@H](CO)c3ncc(C#N)cc3F)c(C)c12 (single isomer, unassigned) [compound 248] | 3.01
Cc1c(CC(=O)N[C@H](CO)c2ncc(F)cc2F)c(=O)[nH]c2ccnc(C(F)(F)F)c12 [compound 263] | 100.00
Cc1nccc2[nH]c(=O)c(CC(=O)N[C@@H](C)c3ncc(F)cc3F)c(C)c12 (single isomer, unassigned) [compound 379] | 5.81
Cc1c(CC(=O)N[C@H](CO)c2ccc(C#N)cc2F)c(=O)[nH]c2cnnc(C#N)c12 [compound 175] | 100.00
Cc1c([C@@H](C)C(=O)N[C@@H](C)c2ccc(F)cc2F)c(=O)[nH]c2ccnc(Cl)c12 (single isomer, unassigned) [compound 365] | 0.92
Cc1c(CC(=O)N[C@@H]2COc3cccnc32)c(=O)[nH]c2ccnc(C#N)c12 (single isomer, unassigned) [compound 212] | 35.35
C[C@H](NC(=O)[C@@H](C)c1cc2c(F)nccc2[nH]c1=O)c1ccc(F)cc1F (single isomer, unassigned) [compound 367] | 36.08
Cc1ccc2[nH]c(=O)c(CC(=O)N[C@@H](C)c3ccc(F)cc3F)c(C)c2n1 [compound 420] | 2.34
COc1nccc2[nH]c(=O)c(CC(=O)N[C@@H](C)c3ccc(F)cc3F)c(C)c12 [compound 385] | 0.33
Cc1c(CC(=O)N[C@@H]2COc3cc(F)cc(F)c32)c(=O)[nH]c2ccnc(C#N)c12 (single isomer, unassigned) [compound 273] | 4.08
Cc1nccc2[nH]c(=O)c(CC(=O)N[C@@H](CO)c3cccnc3)c(C)c12 (single isomer, unassigned) [compound 312] | 100.00
Cc1nccc2[nH]c(=O)c(CC(=O)N[C@@H](CO)Cc3ccccc3)c(C)c12 [compound 496] | 100.00
Cc1ccccc1[C@@H](C)NC(=O)Cc1c(C)c2c(C)nccc2[nH]c1=O (single isomer, unassigned) [compound 326] | 100.00

Same assay, conditions: ‡ Y125 value, not a Y75 value (125% activity relative to no compound); porcine ventricle myofibrils

Compound | Ventricular EC25
Cc1c(C(F)(F)C(=O)NC(C)c2cccc(C#N)n2)c(=O)[nH]c2ccc(F)c(F)c12 (single isomer, unassigned) [Compound 2588] | 67.27‡ μM
C[C@H](NC(=O)C1(c2cc3cc(F)ccc3[nH]c2=O)CC1)c1cccc(C#N)n1 (single isomer, unassigned) [compound 2535] | 85.38‡ μM
